From ChEMBL document CHEMBL5214986, “Discovery of selective covalent cathepsin K inhibitors containing novel 4-cyanopyrimidine warhead based on quantum chemical calculations and binding mode analysis” (Bioorg Med Chem, 2022)
Calls of active or inactive are those of the source. No cut-off for these calls is given here.

Columns and labels:
[1] = biological target: T1, Cathepsin K (Homo sapiens) (UniProt P43235); assay: Inhibition of Cathepsin K (unknown origin) assessed as inhibition of AFC release at 1 uM using sequence LR labelled with AFC as substrate by fluorescence based analysis
T1 sequence (whole entry): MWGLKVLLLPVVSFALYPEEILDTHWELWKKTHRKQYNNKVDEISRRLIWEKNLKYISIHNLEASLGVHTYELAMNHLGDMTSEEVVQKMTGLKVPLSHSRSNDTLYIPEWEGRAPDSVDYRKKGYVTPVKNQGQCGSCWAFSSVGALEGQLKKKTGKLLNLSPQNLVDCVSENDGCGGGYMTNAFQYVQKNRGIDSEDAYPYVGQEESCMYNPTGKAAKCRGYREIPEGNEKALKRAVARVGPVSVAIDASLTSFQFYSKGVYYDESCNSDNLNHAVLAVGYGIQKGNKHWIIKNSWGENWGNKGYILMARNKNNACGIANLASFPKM

[2] = biological target: T1, Cathepsin K (Homo sapiens); assay: Inhibition of Cathepsin K (unknown origin) assessed as inhibition of AFC release at 10 uM using sequence LR labelled with AFC as substrate by fluorescence based analysis
Cathepsin K = biological target: T2, Cathepsin K (Homo sapiens, UniProt P43235); assay: Inhibition of Cathepsin K (unknown origin) assessed as inhibition of AFC release using sequence LR labelled with AFC as substrate by fluorescence based analysis
T2 sequence (P43235 whole entry): T1 sequence (whole entry)

Cathepsin B = Cathepsin B (Homo sapiens, UniProt P07858); assay: Inhibition of Cathepsin B (unknown origin) assessed as inhibition of AFC release using sequence RR labelled with AFC as substrate by fluorescence based analysis
[3] = biological target: Cathepsin (S and K) (Homo sapiens) (UniProt P25774+P43235); assay: Selectivity index, ratio of IC50 for Cathepsin S (unknown origin) to IC50 for Cathepsin K (unknown origin) by fluorescence based analysis; assay type: protein assay
Chain of Cathepsin (S and K) (Homo sapiens) (P25774 whole entry, looked up, one chain of several): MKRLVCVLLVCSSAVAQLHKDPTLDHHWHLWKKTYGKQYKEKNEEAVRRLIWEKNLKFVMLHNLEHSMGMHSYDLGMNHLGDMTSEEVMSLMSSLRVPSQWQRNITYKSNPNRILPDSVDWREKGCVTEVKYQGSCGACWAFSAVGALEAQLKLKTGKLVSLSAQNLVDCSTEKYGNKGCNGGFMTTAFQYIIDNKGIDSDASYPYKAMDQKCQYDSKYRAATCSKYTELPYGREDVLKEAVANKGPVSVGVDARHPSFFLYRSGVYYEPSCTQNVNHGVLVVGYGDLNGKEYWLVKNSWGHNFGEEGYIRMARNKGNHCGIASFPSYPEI

Cathepsin S = Cathepsin S (Homo sapiens, UniProt P25774); assay: Inhibition of Cathepsin S (unknown origin) assessed as inhibition of AFC release using sequence VVR labelled with AFC as substrate by fluorescence based analysis
Chain of Cathepsin S (P25774 whole entry): as the sequence (P25774 whole entry, looked up, one chain of several) above

[4] = biological target: Cathepsin (B and K) (Homo sapiens) (UniProt P43235+P07858); assay: Selectivity index, ratio of IC50 for Cathepsin B (unknown origin) to IC50 for Cathepsin K (unknown origin) by fluorescence based analysis; assay type: protein assay
[5] = biological target: T1, Cathepsin K (Homo sapiens); assay: Reversible inhibition of Cathepsin K (unknown origin) assessed as inhibition of AFC release using sequence LR labelled with AFC as substrate preincubated with enzyme for 10 to 60 mins followed by substrate addition by fluorescence based analysis

Compound | inhibition [1] | inhibition [2] | IC50 (Cathepsin K) | IC50 (Cathepsin B) | Ratio IC50 [3] | IC50 (Cathepsin S) | Ratio IC50 [4] | inhibition [5]
CC(C)(C)CN(Cc1ccc2cccnc2c1)c1nccc(C#N)n1 | 48% | 93.4% |  |  |  |  |  | 
CN1CCN(c2ccc(CN(CC(C)(C)C)c3nccc(C#N)n3)cc2)CC1 | 96.7% | 99.1% | 61.9 nM | > 100000 nM | > 810 | > 50000 nM | > 1620 | Active
CC(C)(C)CN(Cc1ccc2ccccc2n1)c1nccc(C#N)n1 | 46.9% | 87.4% |  |  |  |  |  | 
CC(C)(C)CN(Cc1cc(Br)cs1)c1nccc(C#N)n1 | 43.9% | 75.8% |  |  |  |  |  | 
CC(C)(C)CN(Cc1ccc(Br)cn1)c1nccc(C#N)n1 |  | 32.2% |  |  |  |  |  | 
CC(C)(C)CN(Cc1ccc(Cl)cc1)c1nccc(C#N)n1 | 61.3% | 88.3% |  |  |  |  |  | 
N#Cc1ccnc(N(Cc2ccc(Br)cc2)CC2CCCCC2)n1 | 47.4% | 73.2% |  |  |  |  |  | 
CC(C)(C)CN(Cc1ccc(Br)cc1)c1nccc(C#N)n1 | 79.8% | 91.3% | 974 nM |  |  |  |  | 
Cc1ncc(CN(CC(C)(C)C)c2nccc(C#N)n2)s1 | 52.6% | 93.7% |  |  |  |  |  | 
CC(C)(C)CN(Cc1ccccc1)c1nccc(C#N)n1 | -1.05% | 82.7% |  |  |  |  |  | 
CC(C)(F)C[C@H](N[C@@H](c1ccc(-c2ccc(S(C)(=O)=O)cc2)cc1)C(F)(F)F)C(=O)NC1(C#N)CC1 [ODANACATIB] | 96.5% | 100% | 1.7 nM | < 2000 nM | < 300 | < 500 nM | < 1180 | 
N#Cc1ccnc(N(Cc2ccc(Br)cc2)C2CCCCC2)n1 | 16.8% | 42.8% |  |  |  |  |  | 
CC(C)(C)CN(Cc1cccc(-c2ccccc2)c1)c1nccc(C#N)n1 | 33.6% | 45.5% |  |  |  |  |  | 
CC(C)(C)CN(Cc1ccc2ccccc2c1)c1nccc(C#N)n1 | 86.5% | 89.7% | 356 nM | > 500000 nM |  | > 500000 nM |  | 
CC(C)(C)CN(Cc1ccc(-c2ccccc2)cc1)c1nccc(C#N)n1 | 77.5% | 83.3% | 235 nM | > 500000 nM |  | > 500000 nM |  | 
CC(C)(C)CN(Cc1ccc(F)cc1)c1nccc(C#N)n1 | 56.2% | 90.6% |  |  |  |  |  | 
